Series [1] relates to phospho-p70 S6 kinase (Thr389) in Tsc2-null MEFs. The series is described as follows: S6K phosphorylation (Thr389) by Western blot in Tsc2-null MEFs. As to conditions: 24 h.
Source text: Levels of phospho-p70 S6 kinase (Thr389) (pS6K) were detected by Western blot and measured using densitometric analysis.
For series [2], the system named is Rheb localization in Tsc2-wt MEF cells. As to the kind of experiment: GFP-Rheb cellular localization by confocal microscopy in Tsc2-wt MEFs. It is filed as cell-based, mouse. As to conditions: Tsc2-wt MEF cells with GFP-Rheb, 6 µM, 24 h. The procedure:
For GFP proteins, Tsc2-wt MEF cells were electroporated with 3 µg of pEGFP-C1-RhebWT (GFP-Rheb) or pEGFP-C1 (GFP only) using NEON™ Transfection System (Invitrogen). Briefly, 200.000 cells were electroporated with the 10 µl tips at 1100 V for 30 mseg (one pulse). […] Cells were fixed with 4% w/v paraformaldehyde (PFA) for 10 min and permeabilized with 0.1% Triton X-100 in Phosphate-Buffered Saline (PBS) for 30 min. Then, samples were blocked for 1 h with 3% BSA-PBS and incubated overnight with primary antibody (1:200 dilution) in a dark/wet chamber at 4°C. Next, fixed cells were incubated with secondary antibody (1:500 dilution) and Hoechst (1:250 dilution) for 1 h in the dark/wet chamber at room temperature. The coverslips were mounted on a slide with DAKO mounting medium (Agilent, Santa Clara, USA). Images were analyzed by confocal fluorescence microscopy using the LSM780 NLO Confocal Spectral Microscope (Carl Zeiss, Jena, Germany).
Supplementary Figure 5. Deltasonamide 1 affects the cellular localization of Rheb. Tsc2-wt MEF cells were transfected with pEGFP-C1-GFP-RhebWT (GFP -Rheb) or pEGFP-C1 (GFP only) and treated with 6µM Deltas onamide 1 or DMSO for 24 hours. GFP-Rheb and GFP levels were analyzed by immunofluorescence and confocal microscopy. Scale bar = 20 µm.
(§1) (1 picture or pasted object on this page, not shown here)

The subject of series [3] is Tsc2-wt MEFs. As to the kind of experiment: XTT viability assay in Tsc2-wt MEFs. It is filed as cell-based, mouse. The protocol: (§2) We used XTT based-Cell Proliferation Kit (Biological Industries, USA) according to the manufacturer’s instructions to assess cell viability and proliferation. Briefly, Tsc2-null or Tsc2-wt MEF cells were seeded in 96-well plates and grown in DMEM without phenol red (Biological Industries, Cromwell, USA) at 37°C in 5% CO2. […] After 4 h of incubation, viable cells were detected by measuring the absorbance at 450nm/630 nm using TECAN Infinite® 200 PRO microplate reader (Tecan Group Ltd. Männedorf, Switzerland). The results were expressed as a percentage of absorbance relative to the control group.
On the technique in general: Tetrazolium assays rely on reduction of a dye to a coloured formazan, in cell work by metabolically active cells.

The subject of series [4] is Tsc2-null MEFs. As to the kind of experiment: XTT viability assay in Tsc2-null MEFs. Format: cell-based, mouse. As to conditions: after 24 h, Deltasonamide 1 6 µM, rapamycin 20 nM. The procedure:
as §2

The test system of series [5] is Tsc2-null MEFs. The series is described as follows: Live/Dead and CytoTox-Glo cell assay in Tsc2-null MEFs. To be noted: Deltasonamide 1 6 µM, rapamycin 20 nM; for effect on cell numbers: vs DMSO.
Series [6] has as its system phospho-S6 ribosomal protein (Ser235/236) in Tsc2-null MEFs. As to the kind of experiment: S6 phosphorylation (pS6) by Western blot in Tsc2-null MEFs. It is filed as cell-based, mouse. To be noted: 0.5-6 µM, 24 h. The protocol:
(§3) p53−/− Tsc2+/+ mouse embryonic fibroblast (MEF) and p53−/− Tsc2−/− MEF cells (hereinafter referred to as Tsc2-wt and Tsc2-null MEFs) were kindly provided by David J. Kwiatkowski (Harvard Medical School, Boston, MA, USA). MEF cells were cultured in Dulbecco’s modified Eagles’s medium (DMEM) (Corning, New York, USA), supplemented with 100 μg/ml streptomycin (HyClone), 100 U/ml penicillin (HyClone), 10% fetal bovine serum (Biological Industries, Cromwell, USA) and incubated at 37°C in 5% CO2.
Proteins were extracted in cold lysis buffer (50 mM Tris-HCl pH 7.4; 10% glycerol; 200 mM NaCl2; 2.5 mM MgCl2; 1% Triton X-100; 1/100 protease inhibitors; 1/100 phosphatase inhibitors) and the protein concentration was determined by Bradford assay. […] Immunolabeled proteins were detected using ECL Western Blotting Detection Reagent (GE Healthcare, Chicago, USA) and visualized in Syngene PXi6 Documentation System (Frederick, MD, USA).
For GFP proteins, Tsc2-wt MEF cells were electroporated with 3 µg of pEGFP-C1-RhebWT (GFP-Rheb) or pEGFP-C1 (GFP only) using NEON™ Transfection System (Invitrogen). […] Images were analyzed by confocal fluorescence microscopy using the LSM780 NLO Confocal Spectral Microscope (Carl Zeiss, Jena, Germany).

Series [7] concerns mTORC1 signaling in Tsc2-wt MEFs. As to the kind of experiment: mTORC1 signaling by immunoblotting in Tsc2-wt MEFs. It is filed as cell-based, mouse. To be noted: 4 h and 24 h, Deltasonamide 1 6 µM, rapamycin 20 nM. The procedure:
(§4) Proteins were extracted in cold lysis buffer (50 mM Tris-HCl pH 7.4; 10% glycerol; 200 mM NaCl2; 2.5 mM MgCl2; 1% Triton X-100; 1/100 protease inhibitors; 1/100 phosphatase inhibitors) and the protein concentration was determined by Bradford assay. Total proteins were denaturized in loading buffer (50 mM Tris-HCl pH 6.8; 2% SDS; 0.1% bromophenol blue; 10% glycerol; 1% β-mercaptoethanol) by boiling for 5 min, separated by SDS-PAGE, and transferred to Polyvinylidene fluoride (PVDF) membrane (MilliporeSigma, Burlington, USA). For immunoblotting, all primary antibodies were diluted 1:1.000, except for anti-β-Actin antibody (1:10000 dilution). Secondary antibodies were diluted 1:10000. Immunolabeled proteins were detected using ECL Western Blotting Detection Reagent (GE Healthcare, Chicago, USA) and visualized in Syngene PXi6 Documentation System (Frederick, MD, USA).
Supplementary Figure 4. […].
and 24 h (right panel). Lysates were characterized by immunoblotting of the indicated proteins. Results
are representative of three independent experiments.
as §1

In series [8] the test system is phospho-4EBP1 (Thr37/46, Thr70) in Tsc2-null MEFs. The series is described as follows: 4EBP1 phosphorylation by Western blot in Tsc2-null MEFs. Format: cell-based, mouse. To be noted: 24 h; for effect on 4EBP1 phosphorylation (p4EBP1 levels, top band): 6 µM; for change in electrophoretic pattern of total and phosphorylated 4EBP1: Deltasonamide 1 6 µM, rapamycin 20 nM. The protocol:
as §3, §4
On the technique in general: In western blotting, separated proteins are transferred to a membrane and probed.

For series [9], the system named is Tsc2-null MEFs. As to the kind of experiment: BrdU assay in Tsc2-null MEFs. To be noted: 24 h, Deltasonamide 1 6 µM, rapamycin 20 nM. Format: cell-based, mouse. The procedure: BrdU (5-Bromo-2-deoxyuridine) labeling, and detection kit II (Roche, Basel, Switzerland) were used for the analysis. Briefly, cells were labeled 45 min with 50 µM BrdU and fixed for 20 min at […] with a fixing solution (15 mM glycine pH 2.0, 70% ethanol). Then, cells were incubated with anti-BrdU antibody (1:20 dilution) and nucleases in incubation buffer (66 mM Tris, 0.66 mM MgCl2, 1 mM β-mercaptoethanol) for 30 min at 37°C in a wet chamber. For secondary antibody, Alexa 555 anti-mouse conjugated (1:500 dilution) was used. The nuclei were labeled with Hoechst 33342 diluted 1:250. Finally, the samples were mounted on a slide with DAKO mounting medium. At least 3 images were captured using Olympus CKX41 fluorescence microscope for each condition. BrdU positive cells were analyzed using ImageJ software.
(Incorporation of labelled thymidine or its analogues reports DNA synthesis.)

Series [10] relates to Smad/Smurf. The series is described as follows: yeast two-hybrid LacZ quantitative measurement, Smad/Smurf control interaction. As to conditions: 7 and 24 h, titrated concentrations.
Procedure: As a control, a yeast two-hybrid was performed using Smad (bait), Smurf (prey), and the empty vectors. To verify positive clones, diploid cells were grown on selective media either lacking tryptophan and leucine (DO-2) or lacking tryptophan, leucine, and histidine (DO-3). To detect lacZ gene expression, diploid cells co-transformed with bait and prey constructs were grown on DO-2 medium supplemented with X-gal substrate. […] To detect lacZ gene expression, diploid cells co-transformed with bait and prey constructs were grown on DO-2 medium supplemented with X-gal substrate. Co-transformed cells able to grow on DO-2 medium and form blue colonies in the presence of X-gal were considered positive bait-prey interaction.
Series [11] deals with Caco-2 cells. The series is described as follows: Caco-2 permeability assay. The procedure:
To measure cellular permeability, Caco-2 cells were seeded on a transwell membrane in a 24-well format and grown for 3 weeks to form a monolayer of differentiated cells.

Series [12] relates to EGF-induced S6 phosphorylation in pancreatic cancer cell lines. Also noted: method as in Papke et al., 2016. As to conditions: another pancreatic cancer cell line; ref Papke et al., 2016; cited from earlier work.

Several values for one entry are separate records, joined by “and”; a condition that tells them apart may be missing. Equal entries are not always repeated.

Consider `CNc1nccc(CN(CC2CCNCC2)S(=O)(=O)c2ccc(S(=O)(=O)N(Cc3ccc(Cl)cc3)C3CCCC3)cc2)n1` [Deltasonamide 1], for which, in [1] (0.5–8 µM), the “LogIC50 of pS6K levels (Figure 3)” value is -5.347. In series [2], the “effect on intracellular Rheb distribution” value is on record as “disrupted”. The “effect on cell viability (XTT)” value in series [3] (72 h, Deltasonamide 1 6 µM) is listed as “reduced”. The “effect on cell viability (XTT)” value in [4] is reported as “significantly diminished”. Moreover, in series [5] (24 h), the “effect on dead cells” value is given as “not associated with an increase in dead cells” and the “effect on cell numbers” value was “significantly decreased”. Moreover, the “effect on percentage of dead cells” value in [5] (48 h) is “significantly increased”. Also, the “effect on S6 phosphorylation (pS6)” value in series [6] was “dose-dependently reduced”. In [7], the “effect on mTORC1 activity/signaling” value is on record as “did not affect”. Further, in series [8], the “effect on 4EBP1 phosphorylation (p4EBP1 levels, top band)” value is on record as “could not detect a significant effect”; the “change in electrophoretic pattern of total and phosphorylated 4EBP1” value was “caused the appearance of lower molecular weight bands”. For the same compound, the “effect on BrdU incorporation” value in series [9] is “significantly reduced”. Moreover, in series [10], the “effect on the interaction between Smad and Smurf” value is reported as “not affected”. Moreover, in [11] (10 µM, 2 h, 37°C), the “Caco-2 (pH 6.5/7.4) Papp (A→B)” value was 1.6 10^−6 cm/s and 1.56 10^−6 cm/s; the “Caco-2 (pH 6.5/7.4) Papp (B→A)” value is 13.67 10^−6 cm/s.

Turning to `Cc1ccc(-n2nc3c(=O)n(CCCC(=O)NCC(C)c4ccccc4)nc(C)c3c2C)cc1` (stereo not shown) [Deltazinone 1], the “effect on S6K phosphorylation” value in series [1] (6 µM) is reported as “ineffective”. Also, in series [12], the “effect on EGF-induced S6 phosphorylation” value is “ineffective”. Besides, the “effect on S6 phosphorylation (pS6)” value in series [6] is recorded as “did not affect”. Moreover, the “effect on 4EBP1 phosphorylation (p4EBP1 levels, top band)” value in series [8] is “ineffective”. The “effect on the interaction between Smad and Smurf” value in [10] is “not affected”. For the same compound, in series [11] (Caco-2, pH 6.5), the “Caco-2 (pH 6.5/7.4) Papp (A→B)” value is recorded as 41.1 10^−6 cm/s and the “Caco-2 (pH 6.5/7.4) Papp (B→A)” value is recorded as 25.1 10^−6 cm/s.

In the case of `CO[C@H]1C[C@@H]2CC[C@@H](C)[C@@](O)(O2)C(=O)C(=O)N2CCCC[C@H]2C(=O)O[C@H]([C@H](C)C[C@@H]2CC[C@@H](O)[C@H](OC)C2)CC(=O)[C@H](C)/C=C(\C)[C@@H](O)[C@@H](OC)C(=O)[C@H](C)C[C@H](C)/C=C/C=C/C=C/1C` [rapamycin], the “effect on cell viability (XTT)” value in series [3] (48 h, rapamycin 20 nM) is listed as “significantly affected”; in series [4], “significantly diminished”. Also, in [5] (24 h), the “effect on cell numbers” value is given as “significantly decreased”. Also, in series [7], the “effect on mTORC1 activity/signaling” value is reported as “significantly affected”. For the same compound, the “change in electrophoretic pattern of total and phosphorylated 4EBP1” value in series [8] is “caused the appearance of lower molecular weight bands”. The “effect on BrdU incorporation” value in series [9] is “significantly reduced”.

These data come from PMC9260180, “Blocking the Farnesyl Pocket of PDEδ Reduces Rheb-Dependent mTORC1 Activation and Survival of Tsc2-Null Cells” (Frontiers in Pharmacology, 2022).
